Measurements reported in US9469644B2, “Inhibitors of Bruton's tyrosine kinase” (Hoffmann-La Roche Inc., priority 2013, dated 2016).

Biological target: Bruton's Tyrosine Kinase (BTK), inactivated state (Homo sapiens (Human), UniProt Q06187)
Test: BTK inhibition TR-FRET competition assay
Format: binding
Conditions: TR-FRET competition with Kinase Tracer 178, 18-24 h at 14° C.
Protocol: This BTK competition assay measures compound potency (IC50) for the inactivated state of Bruton's Tyrosine Kinase using FRET (Förster/Flouresence Resonance Energy Transfer) technology. The BTK-Eu complex was incubated on ice one hour prior to use at a starting concentration of 50 nM BTK-BioeaseTM: 10 nM Eu-streptavidin (Perkin-Elmer Catalog# AD0062). The assay buffer consisted of 20 mM HEPES (pH 7.15), 0.1 mM DTT, 10 mM MgCl2, 0.5 mg/ml BSA with 3% Kinase Stabilizer (Fremont Biosolutions, Catalog #STB-K02). After 1 h, the reaction mixture from above was diluted 10 fold in assay buffer to make 5 nM BTK: 1 nM Eu-Streptavidin complex (donor fluorophore). 18 μl of a mixture of 0.11 nM BTK-Eu and 0.11 nM Kinase Tracer 178 (Invitrogen, Catalog #PV5593,) with BTK-Eu alone as no negative control, was then dispensed into 384-well flat bottom plates (Greiner, 784076). Compounds to be tested in assay were prepared as 10× concentrations and serial dilution in half-log increments was performed in DMSO so as to generate 10 point curves. To initiate the FRET reaction, compounds prepared as 10× stock in DMSO was added to the plates and the plates were incubated 18-24 h at 14° C. After the incubation the plates were read on a BMG Pherastar Fluorescent plate reader (or equivalent) and used to measure the emission energy from the europium donor fluorophore (620 nm emission) and the FRET (665 nm emission). The negative control well values were averaged to obtain the mean minimum. The positive “no inhibitor” control wells were averaged to obtain the mean maximum. […] The mean IC50 and standard deviation will be derived from duplicate curves (singlet inhibition curves from two independent dilutions) using Microsoft Excel.

Sequence of Bruton's Tyrosine Kinase (BTK), inactivated state (Q06187 whole entry): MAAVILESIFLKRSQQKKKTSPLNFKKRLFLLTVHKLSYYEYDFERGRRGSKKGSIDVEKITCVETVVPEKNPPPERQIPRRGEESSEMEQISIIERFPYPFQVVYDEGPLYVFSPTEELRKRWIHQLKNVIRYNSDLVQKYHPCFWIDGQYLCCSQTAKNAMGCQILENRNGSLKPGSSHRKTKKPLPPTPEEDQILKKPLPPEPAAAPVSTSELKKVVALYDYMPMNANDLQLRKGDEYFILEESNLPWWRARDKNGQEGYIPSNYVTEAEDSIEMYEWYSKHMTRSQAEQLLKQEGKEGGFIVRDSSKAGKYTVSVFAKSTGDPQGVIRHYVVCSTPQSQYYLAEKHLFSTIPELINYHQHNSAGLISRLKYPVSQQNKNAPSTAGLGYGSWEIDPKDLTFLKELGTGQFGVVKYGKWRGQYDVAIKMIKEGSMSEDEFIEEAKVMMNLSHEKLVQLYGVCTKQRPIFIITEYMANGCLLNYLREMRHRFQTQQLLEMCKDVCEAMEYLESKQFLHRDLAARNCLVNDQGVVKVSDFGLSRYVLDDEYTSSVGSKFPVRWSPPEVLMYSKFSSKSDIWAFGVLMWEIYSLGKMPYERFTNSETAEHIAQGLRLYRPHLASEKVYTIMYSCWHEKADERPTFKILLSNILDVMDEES

IC50 [nM] | Compound
9570 | CC(C)(C)c1ccc(C(=O)NC2CCCC(Nc3ncnc4[nH]cnc34)C2)cc1 (stereo not shown) [Compound 1, 4-tert-Butyl-N-[3-(7H-purin-6-ylamino)-cyclohexyl]-benzamide]
100000 | O=C(NCc1cccc(Cl)c1)C1CCCC(Nc2ncnc3[nH]cnc23)C1 (stereo not shown) [Compound 2, 3-(9H-Purin-6-ylamino)-cyclohexanecarboxylic acid 3-chloro-benzylamide]
2820 | Cn1cc(Nc2nc(NC3CCCCC3)c3nc[nH]c3n2)cn1 [Compound 3, N*6*-Cyclohexyl-N*2*-(1-methyl-1H-pyrazol-4-yl)-9H-purine-2,6-diamine]
40600 | CC1CCCC(Nc2nc(Nc3cnn(C)c3)nc3[nH]cnc23)C1 (stereo not shown) [Compound 4, N*6*-(3-Methyl-cyclohexyl)-N*2*-(1-methyl-1H-pyrazol-4-yl)-9H-purine-2,6-diamine]
56.9 | Cn1cc(Nc2nc(NC3CCCC(NC(=O)c4ccc(C(C)(C)C)cc4)C3)c3nc[nH]c3n2)cn1 (stereo not shown) [Compound 5, 4-tert-butyl-N-{3-[2-(1-methyl-1H-pyrazol-4-ylamino)-9H-purin-6-ylamino]-cyclohexyl}-benzamide]
45.3 | O=C(NC1CCCC(Nc2ncnc3[nH]cnc23)C1)c1ccccc1 (stereo not shown) [Compound 6]
109 | CC(C)(C)OC(=O)NC1CCCC(C(=O)O)C1 (stereo not shown) [Compound 7]
